Test results published in ChEMBL document CHEMBL4725297, “The discovery and evaluation of 3-amino-2(1H)-pyrazinones as a novel series of selective p38α MAP kinase inhibitors” (Bioorg Med Chem Lett, 2020).
Converted amounts (≈) assume the structure as drawn.

Experiment: Clearance in iv dosed rat relative to hepatic blood flow
Format: ADME, organism-based
Conditions: in vivo

SMILES	CL
CNCCOc1ccccc1C(C)(C)Nc1nccn(-c2cc(C(=O)NC3CC3)ccc2C)c1=O	69%

Experiment: Aqueous solubility of the compound at pH 7.4
Format: physicochemical
Conditions: buffer

SMILES	solubility
Cc1ccc(C(=O)NC2CC2)cc1-n1cnc2ccc(N3CCN(C)CC3)cc2c1=O [AZD-6703]	730 µM (≈ 305 µg/mL)

Same assay, conditions: buffer, read-out: solubility

SMILES	solubility
Cc1ccc(C(=O)NC2CC2)cc1-n1ccnc(NC2CC2)c1=O	> 1000 µM
Cc1ccc(C(=O)NC2CC2)cc1-n1ccnc(NCc2ccccc2)c1=O	23 µM (≈ 8.61 µg/mL)
COc1ccc(CNc2nccn(-c3cc(C(=O)NC4CC4)ccc3C)c2=O)cc1	< 19 µM
Cc1ccc(C(=O)NC2CC2)cc1-n1ccnc(N[C@@H](c2ccccc2)[C@@H](C)CN(C)C)c1=O	843 µM (≈ 387 µg/mL)
Cc1ccc(C(=O)NC2CC2)cc1-n1ccnc(N[C@@H](c2ccccc2)[C@@H](C)CN2CCN[C@@H](C)C2)c1=O	783 µM (≈ 403 µg/mL)
Cc1ccc(C(=O)NC2CC2)cc1-n1ccnc(NCCc2ccccc2)c1=O	392 µM (≈ 152 µg/mL)
Cc1ccc(C(=O)NC2CC2)cc1-n1ccnc(N[C@H](C)c2ccccc2)c1=O	734 µM (≈ 285 µg/mL)
Cc1ccc(C(=O)NC2CC2)cc1-n1ccnc(N[C@@H](C)c2ccccc2)c1=O	50 µM (≈ 19.4 µg/mL)
Cc1ccc(C(=O)NC2CC2)cc1-n1ccnc(N[C@@H](c2ccccc2)[C@@H](C)CO)c1=O	870 µM (≈ 376 µg/mL)
Cc1ccc(C(=O)NC2CC2)cc1-n1ccnc(N[C@@H](c2ccccc2)[C@@H](C)CN2CCN(C)CC2)c1=O	854 µM (≈ 440 µg/mL)
Cc1ccc(C(=O)NC2CC2)cc1-n1ccnc(NCc2ccccc2OCCN2CCCC2)c1=O	670 µM (≈ 327 µg/mL)
Cc1ccc(C(=O)NC2CC2)cc1-n1ccnc(NC(C)(C)c2ccccc2OCCN2CCCC2)c1=O	> 1000 µM
Cc1ccc(C(=O)NC2CC2)cc1-n1ccnc(N[C@@H]2CCCc3ccccc32)c1=O	168 µM (≈ 69.6 µg/mL)
Cc1ccc(C(=O)NC2CC2)cc1-n1ccnc(N[C@@H](c2ccccc2)[C@@H](C)CN2CCCCC2)c1=O	908 µM (≈ 454 µg/mL)
Cc1ccc(C(=O)NC2CC2)cc1-n1ccnc(N[C@@H](c2ccccc2)[C@@H](C)CN2CCNCC2)c1=O	636 µM (≈ 318 µg/mL)
Cc1ccc(C(=O)NC2CC2)cc1-n1ccnc(NCC2CCCCC2)c1=O	340 µM (≈ 129 µg/mL)
Cc1ccc(C(=O)NC2CC2)cc1-n1ccnc(N[C@@H](c2ccccc2)[C@@H](C)CN2CCN[C@H](C)C2)c1=O	847 µM (≈ 436 µg/mL)
CC[C@@H](Nc1nccn(-c2cc(C(=O)NC3CC3)ccc2C)c1=O)c1ccccc1	270 µM (≈ 109 µg/mL)
Cc1ccc(C(=O)NC2CC2)cc1-n1ccnc(N(C)Cc2ccccc2)c1=O	54 µM (≈ 21 µg/mL)
CC[C@@H](Nc1nccn(-c2cc(C(=O)NC3CC3)ccc2C)c1=O)c1ccccc1OCCN1CCCC1	800 µM (≈ 413 µg/mL)
COc1cccc(CNc2nccn(-c3cc(C(=O)NC4CC4)ccc3C)c2=O)c1	351 µM (≈ 142 µg/mL)
Cc1ccc(C(=O)NC2CC2)cc1-n1ccnc(N[C@@H](c2ccccc2)[C@@H](C)CN2CCOCC2)c1=O	216 µM (≈ 108 µg/mL)
COc1ccccc1CNc1nccn(-c2cc(C(=O)NC3CC3)ccc2C)c1=O	258 µM (≈ 104 µg/mL)
CNCCOc1ccccc1C(C)(C)Nc1nccn(-c2cc(C(=O)NC3CC3)ccc2C)c1=O	650 µM (≈ 309 µg/mL)
Cc1ccc(C(=O)NC2CC2)cc1-n1ccnc(Nc2ccccc2)c1=O	405 µM (≈ 146 µg/mL)
CNc1nccn(-c2cc(C(=O)NC3CC3)ccc2C)c1=O	> 1000 µM
Cc1ccc(C(=O)NC2CC2)cc1-n1ccnc(N2CCCC2c2ccccc2)c1=O (racemic)	344 µM (≈ 143 µg/mL)

Experiment: Oral bioavailability in rat
Format: ADME, organism-based
Conditions: in vivo

SMILES	bioavailability
CNCCOc1ccccc1C(C)(C)Nc1nccn(-c2cc(C(=O)NC3CC3)ccc2C)c1=O	6%

Experiment: Clearance in iv dosed rat
Format: ADME, organism-based
Conditions: in vivo

SMILES	clearance
Cc1ccc(C(=O)NC2CC2)cc1-n1ccnc(NC(C)(C)c2ccccc2OCCN2CCCC2)c1=O	99 mL/min/kg
Cc1ccc(C(=O)NC2CC2)cc1-n1ccnc(N[C@@H](c2ccccc2)[C@@H](C)CN2CCCCC2)c1=O	50 mL/min/kg
CNCCOc1ccccc1C(C)(C)Nc1nccn(-c2cc(C(=O)NC3CC3)ccc2C)c1=O	59 mL/min/kg

Experiment: Apparent permeability of the compound by PAMPA
Format: ADME
Conditions: not given

SMILES	Papp
CNCCOc1ccccc1C(C)(C)Nc1nccn(-c2cc(C(=O)NC3CC3)ccc2C)c1=O	4.2 ×10⁻⁶ cm/s

Experiment: Clearance in iv dosed dog
Format: ADME, organism-based, Canis lupus familiaris
Conditions: in vivo

SMILES	clearance
CNCCOc1ccccc1C(C)(C)Nc1nccn(-c2cc(C(=O)NC3CC3)ccc2C)c1=O	16.5 mL/min/kg

Experiment: Half life in iv dosed rat
Format: ADME, organism-based
Conditions: in vivo

SMILES	half-life
Cc1ccc(C(=O)NC2CC2)cc1-n1ccnc(NC(C)(C)c2ccccc2OCCN2CCCC2)c1=O	8 h
Cc1ccc(C(=O)NC2CC2)cc1-n1ccnc(N[C@@H](c2ccccc2)[C@@H](C)CN2CCCCC2)c1=O	7.8 h
CNCCOc1ccccc1C(C)(C)Nc1nccn(-c2cc(C(=O)NC3CC3)ccc2C)c1=O	13 h
Cc1ccc(C(=O)NC2CC2)cc1-n1cnc2ccc(N3CCN(C)CC3)cc2c1=O [AZD-6703]	0.7 h

Experiment: Intrinsic clearance in rat hepatocytes assessed per 10^6 cells
Format: ADME, cell-based, Hepatocyte
Conditions: read-out: CLH

SMILES	hepatocyte CLint
Cc1ccc(C(=O)NC2CC2)cc1-n1ccnc(NC2CC2)c1=O	< 1 µL/min/1e6 cells
Cc1ccc(C(=O)NC2CC2)cc1-n1ccnc(NCc2ccccc2)c1=O	4.5 µL/min/1e6 cells
COc1ccc(CNc2nccn(-c3cc(C(=O)NC4CC4)ccc3C)c2=O)cc1	3.4 µL/min/1e6 cells
Cc1ccc(C(=O)NC2CC2)cc1-n1ccnc(N[C@@H](c2ccccc2)[C@@H](C)CN(C)C)c1=O	18 µL/min/1e6 cells
Cc1ccc(C(=O)NC2CC2)cc1-n1ccnc(N[C@@H](c2ccccc2)[C@@H](C)CN2CCN[C@@H](C)C2)c1=O	14 µL/min/1e6 cells
Cc1ccc(C(=O)NC2CC2)cc1-n1ccnc(NCCc2ccccc2)c1=O	130 µL/min/1e6 cells
Cc1ccc(C(=O)NC2CC2)cc1-n1ccnc(N[C@H](C)c2ccccc2)c1=O	17 µL/min/1e6 cells
Cc1ccc(C(=O)NC2CC2)cc1-n1ccnc(N[C@@H](C)c2ccccc2)c1=O	< 3 µL/min/1e6 cells
Cc1ccc(C(=O)NC2CC2)cc1-n1ccnc(N[C@@H](c2ccccc2)[C@@H](C)CO)c1=O	19 µL/min/1e6 cells
Cc1ccc(C(=O)NC2CC2)cc1-n1ccnc(N[C@@H](c2ccccc2)[C@@H](C)CN2CCN(C)CC2)c1=O	30 µL/min/1e6 cells
Cc1ccc(C(=O)NC2CC2)cc1-n1ccnc(NCc2ccccc2OCCN2CCCC2)c1=O	55 µL/min/1e6 cells
Cc1ccc(C(=O)NC2CC2)cc1-n1ccnc(NC(C)(C)c2ccccc2OCCN2CCCC2)c1=O	157 µL/min/1e6 cells
Cc1ccc(C(=O)NC2CC2)cc1-n1ccnc(N[C@@H]2CCCc3ccccc32)c1=O	140 µL/min/1e6 cells
Cc1ccc(C(=O)NC2CC2)cc1-n1ccnc(N[C@@H](c2ccccc2)[C@@H](C)CN2CCCCC2)c1=O	61 µL/min/1e6 cells
Cc1ccc(C(=O)NC2CC2)cc1-n1ccnc(N[C@@H](c2ccccc2)[C@@H](C)CN2CCNCC2)c1=O	15 µL/min/1e6 cells
Cc1ccc(C(=O)NC2CC2)cc1-n1ccnc(NCC2CCCCC2)c1=O	7.6 µL/min/1e6 cells
Cc1ccc(C(=O)NC2CC2)cc1-n1ccnc(N[C@@H](c2ccccc2)[C@@H](C)CN2CCN[C@H](C)C2)c1=O	8.5 µL/min/1e6 cells
Cc1ccc(C(=O)NC2CC2)cc1-n1ccnc(NC(C)(C)c2ccccc2)c1=O	19 µL/min/1e6 cells
CC[C@@H](Nc1nccn(-c2cc(C(=O)NC3CC3)ccc2C)c1=O)c1ccccc1	26 µL/min/1e6 cells
Cc1ccc(C(=O)NC2CC2)cc1-n1ccnc(N(C)Cc2ccccc2)c1=O	59 µL/min/1e6 cells
CC[C@@H](Nc1nccn(-c2cc(C(=O)NC3CC3)ccc2C)c1=O)c1ccccc1OCCN1CCCC1	35 µL/min/1e6 cells
COc1cccc(CNc2nccn(-c3cc(C(=O)NC4CC4)ccc3C)c2=O)c1	7.4 µL/min/1e6 cells
Cc1ccc(C(=O)NC2CC2)cc1-n1ccnc(N[C@@H](c2ccccc2)[C@@H](C)CN2CCOCC2)c1=O	> 300 µL/min/1e6 cells
COc1ccccc1CNc1nccn(-c2cc(C(=O)NC3CC3)ccc2C)c1=O	22 µL/min/1e6 cells
CNCCOc1ccccc1C(C)(C)Nc1nccn(-c2cc(C(=O)NC3CC3)ccc2C)c1=O	20 µL/min/1e6 cells
Cc1ccc(C(=O)NC2CC2)cc1-n1ccnc(Nc2ccccc2)c1=O	3.3 µL/min/1e6 cells
CNc1nccn(-c2cc(C(=O)NC3CC3)ccc2C)c1=O	1.1 µL/min/1e6 cells
Cc1ccc(C(=O)NC2CC2)cc1-n1ccnc(N2CCCC2c2ccccc2)c1=O (racemic)	120 µL/min/1e6 cells
Cc1ccc(C(=O)NC2CC2)cc1-n1cnc2ccc(N3CCN(C)CC3)cc2c1=O [AZD-6703]	< 3 µL/min/1e6 cells

Experiment: Volume of distribution at steady state in iv dosed dog
Format: ADME, organism-based, Canis lupus familiaris
Conditions: in vivo, read-out: Vdss

SMILES	Vd
CNCCOc1ccccc1C(C)(C)Nc1nccn(-c2cc(C(=O)NC3CC3)ccc2C)c1=O	6.4 L/kg

Experiment: Half life in iv dosed dog
Format: ADME, organism-based, Canis lupus familiaris
Conditions: in vivo

SMILES	half-life
CNCCOc1ccccc1C(C)(C)Nc1nccn(-c2cc(C(=O)NC3CC3)ccc2C)c1=O	6.6 h

Experiment: Acid dissociation constant, pKa of the compound
Format: physicochemical
Conditions: not given

SMILES	pKa
Cc1ccc(C(=O)NC2CC2)cc1-n1ccnc(N[C@@H](c2ccccc2)[C@@H](C)CN2CCCCC2)c1=O	8.4
CNCCOc1ccccc1C(C)(C)Nc1nccn(-c2cc(C(=O)NC3CC3)ccc2C)c1=O	9.1

Experiment: Distribution coefficient, logD of the compound at pH 7.4
Format: physicochemical
Conditions: octanol/water

SMILES	logD
Cc1ccc(C(=O)NC2CC2)cc1-n1ccnc(NC2CC2)c1=O	1.5
Cc1ccc(C(=O)NC2CC2)cc1-n1ccnc(NCc2ccccc2)c1=O	2.6
COc1ccc(CNc2nccn(-c3cc(C(=O)NC4CC4)ccc3C)c2=O)cc1	2.9
Cc1ccc(C(=O)NC2CC2)cc1-n1ccnc(N[C@@H](c2ccccc2)[C@@H](C)CN(C)C)c1=O	2
Cc1ccc(C(=O)NC2CC2)cc1-n1ccnc(N[C@@H](c2ccccc2)[C@@H](C)CN2CCN[C@@H](C)C2)c1=O	1.5
Cc1ccc(C(=O)NC2CC2)cc1-n1ccnc(NCCc2ccccc2)c1=O	3
Cc1ccc(C(=O)NC2CC2)cc1-n1ccnc(N[C@H](C)c2ccccc2)c1=O	2.9
Cc1ccc(C(=O)NC2CC2)cc1-n1ccnc(N[C@@H](C)c2ccccc2)c1=O	3.1
Cc1ccc(C(=O)NC2CC2)cc1-n1ccnc(N[C@@H](c2ccccc2)[C@@H](C)CO)c1=O	2.6
Cc1ccc(C(=O)NC2CC2)cc1-n1ccnc(N[C@@H](c2ccccc2)[C@@H](C)CN2CCN(C)CC2)c1=O	2.3
Cc1ccc(C(=O)NC2CC2)cc1-n1ccnc(N)c1=O	0.4
Cc1ccc(C(=O)NC2CC2)cc1-n1ccnc(NCc2ccccc2OCCN2CCCC2)c1=O	1.6
Cc1ccc(C(=O)NC2CC2)cc1-n1ccnc(NC(C)(C)c2ccccc2OCCN2CCCC2)c1=O	2.3
Cc1ccc(C(=O)NC2CC2)cc1-n1ccnc(N[C@@H]2CCCc3ccccc32)c1=O	3.7
Cc1ccc(C(=O)NC2CC2)cc1-n1ccnc(N[C@@H](c2ccccc2)[C@@H](C)CN2CCCCC2)c1=O	3
Cc1ccc(C(=O)NC2CC2)cc1-n1ccnc(N[C@@H](c2ccccc2)[C@@H](C)CN2CCNCC2)c1=O	1.3
Cc1ccc(C(=O)NC2CC2)cc1-n1ccnc(NCC2CCCCC2)c1=O	3.7
Cc1ccc(C(=O)NC2CC2)cc1-n1ccnc(N[C@@H](c2ccccc2)[C@@H](C)CN2CCN[C@H](C)C2)c1=O	1.6
Cc1ccc(C(=O)NC2CC2)cc1-n1ccnc(NC(C)(C)c2ccccc2)c1=O	3.1
CC[C@@H](Nc1nccn(-c2cc(C(=O)NC3CC3)ccc2C)c1=O)c1ccccc1	3.3
Cc1ccc(C(=O)NC2CC2)cc1-n1ccnc(N(C)Cc2ccccc2)c1=O	3.2
CC[C@@H](Nc1nccn(-c2cc(C(=O)NC3CC3)ccc2C)c1=O)c1ccccc1OCCN1CCCC1	2.3
COc1cccc(CNc2nccn(-c3cc(C(=O)NC4CC4)ccc3C)c2=O)c1	2.7
Cc1ccc(C(=O)NC2CC2)cc1-n1ccnc(N[C@@H](c2ccccc2)[C@@H](C)CN2CCOCC2)c1=O	3.5
CNCCOc1ccccc1C(C)(C)Nc1nccn(-c2cc(C(=O)NC3CC3)ccc2C)c1=O	1.6
Cc1ccc(C(=O)NC2CC2)cc1-n1ccnc(Nc2ccccc2)c1=O	3
CNc1nccn(-c2cc(C(=O)NC3CC3)ccc2C)c1=O	1.1
Cc1ccc(C(=O)NC2CC2)cc1-n1ccnc(N2CCCC2c2ccccc2)c1=O (racemic)	3.3

Experiment: Clearance in iv dosed dog relative to hepatic blood flow
Format: ADME, organism-based, Canis lupus familiaris
Conditions: in vivo

SMILES	CL
CNCCOc1ccccc1C(C)(C)Nc1nccn(-c2cc(C(=O)NC3CC3)ccc2C)c1=O	54%

Experiment: Volume of distribution at steady state in iv dosed rat
Format: ADME, organism-based
Conditions: in vivo, read-out: Vdss

SMILES	Vd
Cc1ccc(C(=O)NC2CC2)cc1-n1ccnc(NC(C)(C)c2ccccc2OCCN2CCCC2)c1=O	16.6 L/kg
Cc1ccc(C(=O)NC2CC2)cc1-n1ccnc(N[C@@H](c2ccccc2)[C@@H](C)CN2CCCCC2)c1=O	5.5 L/kg
CNCCOc1ccccc1C(C)(C)Nc1nccn(-c2cc(C(=O)NC3CC3)ccc2C)c1=O	31.6 L/kg
